Laboratory results: US9763445B2, “Safened herbicidal compositions comprising a pyridine carboxylic acid herbicide” (Dow AgroSciences, LLC, priority 2014, dated 2017)

Experiments:
thistle (CIRAR) = assay: Postemergence greenhouse trial, % visual injury on thistle; format: in vivo, Cirsium arvense; settings: for % visual injury, Ob: CIRAR
Method in brief: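 Plants at second or third true leaf stage, greenhouse-grown (14 h photoperiod, ~23/22° C.), sprayed postemergence with compounds alone or with safener cloquintocet-mexyl in 1.5% v/v Agri-dex crop oil at 187 L/ha. Visual injury scored 0–100% versus solvent-blank controls after 20-22 d; expected mixture effects by Colby's equation.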

kochia (KCHSC) = assay: Postemergence greenhouse trial, % visual injury on kochia; format: in vivo, Kochia scoparia; settings: for % visual injury, Ob / % visual injury, observed (Ob): KCHSC
Method in brief: (§1)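 Herbicide rates g ae/ha, safener (cloquintocet-mexyl) rates g ai/ha; spray carrier 1.5% v/v crop oil concentrate, 187 L/ha, 2nd–3rd leaf stage. Rating: visual % injury at 20-22 d.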

[1] = system: purple deadnettle (LAMPU); assay: Postemergence greenhouse trial, % visual injury on purple deadnettle; format: in vivo, Lamium purpureum
Method in brief: as §1

[2] = system: bird's-eye speedwell (VERPE); assay: Postemergence greenhouse trial, % visual injury on bird's-eye speedwell; format: in vivo, Veronica persica
Method in brief: as §1

CCCCCC(C)OC(=O)COc1ccc(Cl)c2cccnc12 (centres unmarked) [CQC-m, cloquintocet-mexyl, reference compound]
0%: % visual injury, Ob (thistle (CIRAR); 8.75 g/ha, applied alone) | % visual injury, Ob (thistle (CIRAR); 17.5 g/ha, applied alone) | % visual injury, Ob (thistle (CIRAR); 35 g/ha, applied alone) | % visual injury, Ob (thistle (CIRAR); 70 g/ha, applied alone) | % visual injury, Ob (thistle (CIRAR); compound 0, CQC-m 4.375 g/ha) | % visual injury, Ob (thistle (CIRAR); compound 0, CQC-m 8.75 g/ha) | % visual injury, Ob (thistle (CIRAR); compound 0, CQC-m 17.5 g/ha) | % visual injury, Ob (thistle (CIRAR); compound 0, CQC-m 35 g/ha) | % visual injury, Ob (thistle (CIRAR); compound 0, CQC-m 70 g/ha) | pest or weed control at 4.375 g/ha (thistle (CIRAR); Cirsium arvense, post-emergence, alone, 4.375 g/ha, read-out: % visual injury, Ob) | pest or weed control at 8.75 g/ha (thistle (CIRAR); Cirsium arvense, post-emergence, alone, 8.75 g/ha, read-out: % visual injury, Ob) | pest or weed control at 17.5 g/ha (thistle (CIRAR); Cirsium arvense, post-emergence, alone, 17.5 g/ha, read-out: % visual injury, Ob) | pest or weed control at 35 g/ha (thistle (CIRAR); Cirsium arvense, post-emergence, alone, 35 g/ha, read-out: % visual injury, Ob) | pest or weed control at 70 g/ha (thistle (CIRAR); Cirsium arvense, post-emergence, alone, 70 g/ha, read-out: % visual injury, Ob) | pest or weed control at 4.375 g/ha (kochia (KCHSC); Bassia scoparia, post-emergence, alone, 4.375 g/ha, read-out: % visual injury, Ob) | pest or weed control at 8.75 g/ha (kochia (KCHSC); Bassia scoparia, post-emergence, alone, 8.75 g/ha, read-out: % visual injury, Ob) | pest or weed control at 17.5 g/ha (kochia (KCHSC); Bassia scoparia, post-emergence, alone, 17.5 g/ha, read-out: % visual injury, Ob) | pest or weed control at 20 g/ha (kochia (KCHSC); Bassia scoparia, post-emergence, alone, 20 g/ha, read-out: % visual injury, Ob) | pest or weed control at 35 g/ha (kochia (KCHSC); Bassia scoparia, post-emergence, alone, 35 g/ha, read-out: % visual injury, Ob) | pest or weed control at 40 g/ha (kochia (KCHSC); Bassia scoparia, post-emergence, alone, 40 g/ha, read-out: % visual injury, Ob) | pest or weed control at 70 g/ha (kochia (KCHSC); Bassia scoparia, post-emergence, alone, 70 g/ha, read-out: % visual injury, Ob) | pest or weed control at 80 g/ha (kochia (KCHSC); Bassia scoparia, post-emergence, alone, 80 g/ha, read-out: % visual injury, Ob) | % visual injury, Ob (kochia (KCHSC); 4.375 g/ha, applied alone) | % visual injury, Ob (kochia (KCHSC); 8.75 g/ha, applied alone) | % visual injury, Ob (kochia (KCHSC); 17.5 g/ha, applied alone) | % visual injury, Ob (kochia (KCHSC); 35 g/ha, applied alone) | % visual injury, Ob (kochia (KCHSC); 70 g/ha, applied alone) | % visual injury, Ob (kochia (KCHSC); compound 0, CQC-m 4.375 g/ha) | % visual injury, Ob (kochia (KCHSC); compound 0, CQC-m 8.75 g/ha) | % visual injury, Ob (kochia (KCHSC); compound 0, CQC-m 17.5 g/ha) | % visual injury, Ob (kochia (KCHSC); compound 0, CQC-m 35 g/ha) | % visual injury, Ob (kochia (KCHSC); compound 0, CQC-m 70 g/ha) | % visual injury, Ob (kochia (KCHSC); compound 0 g/ha, CQC-m 4.375 g/ha) | % visual injury, Ob (kochia (KCHSC); compound 0 g/ha, CQC-m 8.75 g/ha) | % visual injury, Ob (kochia (KCHSC); compound 0 g/ha, CQC-m 17.5 g/ha) | % visual injury, Ob (kochia (KCHSC); compound 0 g/ha, CQC-m 35 g/ha) | % visual injury, Ob (kochia (KCHSC); compound 0 g/ha, CQC-m 70 g/ha) | % visual injury, observed (Ob) (kochia (KCHSC); compound 8 0 + CQC-m 4.375 g/ha) | % visual injury, observed (Ob) (kochia (KCHSC); compound 8 0 + CQC-m 8.75 g/ha) | % visual injury, observed (Ob) (kochia (KCHSC); compound 8 0 + CQC-m 17.5 g/ha) | % visual injury, observed (Ob) (kochia (KCHSC); compound 8 0 + CQC-m 35 g/ha) | % visual injury, observed (Ob) (kochia (KCHSC); compound 8 0 + CQC-m 70 g/ha) | % visual injury, Ob ([1]; LAMPU, compound 0, CQC-m 4.375 g/ha) | % visual injury, Ob ([1]; LAMPU, compound 0, CQC-m 8.75 g/ha) | % visual injury, Ob ([1]; LAMPU, compound 0, CQC-m 17.5 g/ha) | % visual injury, Ob ([1]; LAMPU, compound 0, CQC-m 35 g/ha) | % visual injury, Ob ([1]; LAMPU, compound 0, CQC-m 70 g/ha) | % visual injury, Ob ([1]; LAMPU, compound 0 g/ha, CQC-m 4.375 g/ha) | % visual injury, Ob ([1]; LAMPU, compound 0 g/ha, CQC-m 8.75 g/ha) | % visual injury, Ob ([1]; LAMPU, compound 0 g/ha, CQC-m 17.5 g/ha) | % visual injury, Ob ([1]; LAMPU, compound 0 g/ha, CQC-m 35 g/ha) | % visual injury, Ob ([1]; LAMPU, compound 0 g/ha, CQC-m 70 g/ha) | % visual injury, Ob ([1]; alone, 4.375 g/ha) | % visual injury, Ob ([1]; alone, 8.75 g/ha) | % visual injury, Ob ([1]; alone, 17.5 g/ha) | % visual injury, Ob ([1]; alone, 35 g/ha) | % visual injury, Ob ([1]; alone, 70 g/ha) | % visual injury, Ob ([2]; VERPE, compound 0, CQC-m 4.375 g/ha) | % visual injury, Ob ([2]; VERPE, compound 0, CQC-m 8.75 g/ha) | % visual injury, Ob ([2]; VERPE, compound 0, CQC-m 17.5 g/ha) | % visual injury, Ob ([2]; VERPE, compound 0, CQC-m 35 g/ha) | % visual injury, Ob ([2]; VERPE, compound 0, CQC-m 70 g/ha) | % visual injury, Ob ([2]; VERPE, compound 0 g/ha, CQC-m 4.375 g/ha) | % visual injury, Ob ([2]; VERPE, compound 0 g/ha, CQC-m 8.75 g/ha) | % visual injury, Ob ([2]; VERPE, compound 0 g/ha, CQC-m 17.5 g/ha) | % visual injury, Ob ([2]; VERPE, compound 0 g/ha, CQC-m 35 g/ha) | % visual injury, Ob ([2]; VERPE, compound 0 g/ha, CQC-m 70 g/ha) | % visual injury, observed (Ob) ([2]; VERPE, compound 8 0 + CQC-m 4.375 g/ha) | % visual injury, observed (Ob) ([2]; VERPE, compound 8 0 + CQC-m 8.75 g/ha) | % visual injury, observed (Ob) ([2]; VERPE, compound 8 0 + CQC-m 17.5 g/ha) | % visual injury, observed (Ob) ([2]; VERPE, compound 8 0 + CQC-m 35 g/ha) | % visual injury, observed (Ob) ([2]; VERPE, compound 8 0 + CQC-m 70 g/ha) | % visual injury, Ob ([2]; alone, 4.375 g/ha) | % visual injury, Ob ([2]; alone, 8.75 g/ha) | % visual injury, Ob ([2]; alone, 17.5 g/ha) | % visual injury, Ob ([2]; alone, 35 g/ha) | % visual injury, Ob ([2]; alone, 70 g/ha)
